Measurements published in ChEMBL document CHEMBL5154661, “Novel 2-phenyl-3-(Pyridin-2-yl) thiazolidin-4-one derivatives as potent inhibitors for proliferation of osteosarcoma cells in vitro and in vivo” (Eur J Med Chem, 2022).

Experiments:
[1] = test system: HOS-TE85; assay: Antitumor activity against human MNNG/HOS cells xenografted in female BALB/c nude mouse assessed as tumor growth inhibition at 30 mg/kg, po administered daily for 18 days relative to control; assay type: functional; settings: HOS-TE85, 432 h, time 18 day, read-out: TGI
[2] = Toxicity in BALB/c nude mouse xenografted with human MNNG/HOS cells assessed as body weight loss at 62.5 mg/kg, ip administered twice per day for 18 days; assay type: organism-based, HOS-TE85; settings: in vivo, 432 h, time 18 day

CNC(=O)c1cc(Oc2ccc(NC(=O)Nc3ccc(Cl)c(C(F)(F)F)c3)cc2)ccn1 [SORAFENIB]
inhibition in vivo at 30 mg/kg [1]: 44.2%
Activity [2]: Non-Toxic
